# Measurements: ChEMBL document CHEMBL3507680, “University of Dundee, Gates Library screen for HepG2 cell viability”
# Assay: Human HepG2 cell viability assay in 384 well format
# Assay type: toxicity, cell-based
# Design: dose 125 nL, time 70.5 hour; concentration not given beside the values
# Conditions: HepG2 cells, read-out: Inhibition
row,SMILES,cytotoxicity at 70.5 h
1,Cc1nc2c(c(N3CCC(O)(Cn4ccnc4)CC3)n1)CCNCC2,-1.99%
2,CN(C)CCOCc1nnc2n1CCN(Cc1ccoc1)CC2,36.2%
3,COc1ccc(Cl)cc1CCNC(=O)NCc1cnn(C)c1C,-4.39%
4,O=C(Nc1ccc(=O)n(Cc2ccccc2Cl)c1)C1CC1,-23.5%
5,CCC(=O)c1ccc(OCC(=O)NC(C)c2nnn[nH]2)cc1 (stereo not drawn),-0.478%
6,Cc1ccc(C(=O)NCCC(C)C)cc1NS(C)(=O)=O,-10%
7,Cc1ccc(F)c(CNc2ccn(CCC(N)=O)n2)c1,3.53%
8,CNC(=O)CN1CCOCC2(CCCN(Cc3ccc(F)cc3)C2)C1 (stereo not drawn),-9.75%
9,CN1CC2(CCCN(C(=O)c3cnc4ccc(F)cc4c3O)C2)OC1=O (stereo not drawn),-6.43%
10,CCCNC(=O)C1CCN(CC(O)c2ccc(C(F)(F)F)cc2)CC1 (stereo not drawn),-5.86%
11,Cc1nc([C@@H]2C[C@H]3CN(Cc4scnc4C)C[C@H]3O2)no1,5.82%
12,Cc1nn(C)cc1C1SCC(=O)Nc2c1c(O)nn2C(C)C (stereo not drawn),-31.1%
13,Cc1nc(N2CCCC2)ncc1-c1cc(O)n2ncnc2n1,-2.97%
14,NS(=O)(=O)c1cnn(CC(=O)Nc2c(Cl)cccc2Cl)c1,-5.76%
15,CC(C)(C)CN(CCC#N)Cn1cc(Cl)cn1,-3.15%
16,CSCC(=O)N(C)Cc1ccc(N(C)C)cc1,-6.63%
17,CCCn1cc(C(=O)n2nc(C)cc2C)c(S(=O)(=O)N2CCSCC2)n1,-7.23%
18,CCOCC(=O)NCC1(NC(C)c2ccccc2)CCOCC1 (stereo not drawn),-8.52%
19,CCNc1cc2c(nn1)CCN(C(=O)c1cccnc1N(C)C)C2,-1.46%
20,Cc1nc(C(C)C)sc1C(=O)NCCNc1ncccn1,-10.9%
21,COc1ccc(OCCc2cc(C3CNCCO3)nn2C)cc1 (stereo not drawn),12.2%
22,COC[C@@]12CC[C@@H](N3CCOCC3)C[C@H]1CCN(c1ccc(Cl)cn1)C2,-6.42%
23,CCN1CCC2(CCN(Cc3ccc(OC)cc3)CC2)C1=O,-3.84%

row,SMILES,cytotoxicity at 70.5 h
1,CN(Cc1ccsc1)C(=O)CN1CCCC(Cn2cncn2)C1 (stereo not drawn),-5.89%
2,O=C(NCCCn1cccn1)N1CCCC1c1ccncc1 (stereo not drawn),6.98%
3,CCS(=O)(=O)c1ccc(N2CCC(NC(=O)C(C)SC)CC2)cc1 (stereo not drawn),-6.83%
4,O=C(c1ccccc1F)N1CC2(CCNCC2)c2cc(Cl)ccc21,-9.74%
5,CCCSc1ncccc1C(=O)NCc1ccc(S(N)(=O)=O)cc1,-4.05%
6,Cc1nccc(CNC(=O)Nc2cc(C(F)(F)F)c[nH]c2=O)n1,-5.34%
7,Cc1csc(N2CCN(CC(=O)N3CCCC3)CC2C)n1 (stereo not drawn),1.56%
8,CN1C2(CCN(Cc3ccc(F)cc3)C2)c2ccccc2S1(=O)=O (stereo not drawn),13.5%
9,COc1cccc(-n2cc(CN(C)C(=O)c3cc[nH]n3)cn2)c1,-6.6%
10,O=C(c1ccccn1)N(CCO)Cc1cc(Br)ccc1F,17.2%
11,C=C(C)COc1cccc(CN(CC)Cc2noc(C)n2)c1,-0.0989%
12,Cc1cc(C(=O)N2CCOC[C@H](Oc3cnccn3)C2)c(C(F)(F)F)o1,2.77%
13,N#CC1(NC(=O)CN2CCc3c(ncn3C3CC3)C2)CCCC1,-2.71%
14,CC(C)n1c(=O)c2ccccc2n(CCCN(C)C)c1=O,-12.5%
15,COc1ccccc1OCC(=O)NS(=O)(=O)c1cccnc1,-8.19%
16,Cc1nc(-c2cnn(C)c2)nc2c1CN(C(=O)c1cccnc1)CC2,-2.03%
17,O=C(COc1coc(CN2CCCC2)cc1=O)Nc1ccc(Cl)c(Cl)c1,-7.3%
18,CCN(C(c1ccc(OC)cc1)c1cccnc1)S(C)(=O)=O (stereo not drawn),-9.72%
19,CN1CCC(N(CCc2ccccc2)Cc2noc(C3CC3)n2)CC1,-12.8%
20,CCOc1ccnc(N2CCN(C(=O)c3cnc[nH]3)CC2)n1,-0.507%
21,CNc1ncc(CN(C)c2nc(C)c3ccc(S(C)(=O)=O)cc3n2)cn1,-6.87%
22,CC(=O)N[C@@H]1CN(Cc2ccc(F)cc2F)C[C@H]1c1ccc(C)o1,11.7%
23,Cc1c(NCCCOc2cccc(C#N)c2)cccc1C(N)=O,6.97%

row,SMILES,cytotoxicity at 70.5 h
1,Cn1nnnc1SCCC(=O)NCC(C)(C)c1ccccc1F,19.1%
2,CCCC(O)CN1CC(C)(C)CN(C(=O)c2ccc(Cl)cc2)CC1=O (stereo not drawn),-9.8%
3,COC(=O)Cc1cccc(NC(=O)Cc2cc(C)[nH]n2)c1,21.3%
4,O=C(NCc1csc(Cc2ccccc2)n1)C1NCCc2[nH]cnc21 (stereo not drawn),-2.44%
5,Cn1cnnc1S(=O)(=O)C1CCN(S(=O)(=O)c2ccccc2F)CC1,-9.91%
6,Cc1cc(CN(C)C(=O)c2cc3c([nH]c2=O)CCCC3=O)no1,-14.6%
7,Cc1nnc([C@H]2C[C@@H]3CCN(Cc4ccc(C)o4)C[C@H]3O2)[nH]1,-7.28%
8,O=C(NCC(F)(F)F)C1CCCN(Cc2ccno2)C1 (stereo not drawn),-3.85%
9,Cc1noc(CN(Cc2ccco2)Cc2cccc3c2OCO3)n1,-1.63%
10,Cc1cccc(CN2C[C@@H]3COC[C@]3(CNC(=O)c3ccno3)C2)n1,7.45%
11,Cc1ncc2c(c1CNC(=O)C1(c3ccc(F)cc3)CC1)CCNC2,-5.4%
12,CCN(CC)CCCNc1nc(C)nc2c1CCN(C)C2,-1.66%
13,Fc1cccc(C(NCc2ncc[nH]2)c2ccccn2)c1 (stereo not drawn),-6.19%
14,Cc1cncc(C(=O)N2CCNCC2C(=O)NCc2ccncc2)c1 (stereo not drawn),-1.53%
15,CN(C)C(=O)N1CCCC2(CCN(c3ccsc3)C2=O)C1 (stereo not drawn),-6.16%
16,Cc1nc(CN2CCCC2Cn2cncn2)no1 (stereo not drawn),13.1%
17,Cc1cccc2c1cnn2CCCNC(=O)C(C)C,-10%
18,CC(=O)N1Cc2ccccc2OC2(CCN(C(=O)C3CCOC3)CC2)C1 (stereo not drawn),-1.13%
19,NC(=O)c1cccc(CCNC(=O)N2CCCC2)c1,-8%
20,O=S(=O)(C1CC1)N1C[C@@H]2CN(Cc3ccoc3)CCO[C@@H]2C1,-15.4%
21,CCCc1nnsc1C(=O)N1CCCC1(C)C(=O)N1CCOCC1 (stereo not drawn),-9.09%
22,O=C(CC1COCCN1S(=O)(=O)c1ccccc1)NCc1ccccn1 (stereo not drawn),-15.7%
23,CCN(Cc1ccncc1)Cc1c[nH]nc1-c1ccc(F)cc1,-6.51%

row,SMILES,cytotoxicity at 70.5 h
1,COc1ccccc1CC(=O)N1CCC(NCc2c[nH]nc2C)CC1,2.03%
2,Cc1cnc(C(=O)N2CCCN(c3nc(C)cs3)CC2)cn1,-7.69%
3,CC(C)(CNc1cc(F)ccc1F)S(C)(=O)=O,0.249%
4,CC(C)Cc1cc(CNC(=O)C2CCCN(Cc3ccco3)C2)no1 (stereo not drawn),-4.13%
5,Cc1nc(N2CCOCC2)nc(C)c1NC(=O)COc1ccccc1,-1.69%
6,CCN1CCC(N2CCC(c3nc(C)cc(C)n3)C2)CC1 (stereo not drawn),-2.1%
7,Cc1ccc(CNC2(Cc3cc(-c4cccc(O)c4)on3)COC2)o1,-8.24%
8,Cn1ccc2c(C(=O)N3CCN(C(=O)C4CCCC4)CC3)cccc21,-5.41%
9,Cc1nn(C)c(C)c1CCC(=O)N1CCCC(n2cncn2)C1 (stereo not drawn),-6.31%
10,COc1cc(NCc2ncc[nH]2)ccc1Br,-1.95%
11,CC(C)(C)OC(=O)N1CCCc2ccc(NCc3cc[nH]c3)cc21,-9.07%
12,COCc1nc2cc(NCc3sc(C)nc3C)ccc2o1,-4.53%
13,O=C(Cn1ccc2c(Cl)cccc21)N[C@@H](C(=O)O)c1ccccc1,0.804%
14,CC(C(=O)Nc1ccc(N2CCCCC2)nc1)n1ccnc1 (stereo not drawn),25.5%
15,Cc1cc(NC(=O)CN(c2ccccc2)C(C)C)on1,0.413%
16,COc1ccc(C2Nc3cc(Cl)ccc3C3=NCCN32)cc1OC (stereo not drawn),42.1%
17,Cc1nc(CN2C(=O)CC[C@@H]3[C@H]2CCN3C(=O)c2ccno2)cs1,-1.87%
18,COCc1ccc(C(=O)N2CCC(c3cc4ncc(C)nc4[nH]3)C2)cc1 (stereo not drawn),-4.31%
19,COc1nc2c(cc1C(=O)NC(C)Cc1cnccn1)CCC2 (stereo not drawn),-7.71%
20,O=C(Nc1cccc(F)c1)NC1CCN(Cc2ccncc2)CC1,-15.3%
21,Cc1ccc(C(=O)NCc2ccccc2S(=O)(=O)N(C)CCO)cc1F,-1.52%
22,COc1ccc(CNc2nncs2)cc1F,-2.65%
23,CCCN1CCc2[nH]cnc2C12CCN(C(=O)CCn1cccn1)CC2,-2.96%

row,SMILES,cytotoxicity at 70.5 h
1,COc1cc2nc(C)n(CC(=O)NCCO)c(=O)c2cc1OC,-8.13%
2,Cc1cnc2c(S(=O)(=O)NC(=O)C(C)OCC3CC3)cccc2c1 (stereo not drawn),-0.0884%
3,COC(=O)c1ccc(N2CCN(C(=O)c3cccnc3)C(C)C2)cc1 (stereo not drawn),-4.39%
4,COc1ccccc1N1CCN(C(=O)Cn2nc(C)c(Cl)c2C)CC1,11.3%
5,O=C(NCCCn1cccn1)C1CCC(=O)N(CC2CCCCC2)C1 (stereo not drawn),-2.08%
6,Cc1cc(CNC(=O)CCN2CCN(c3ccccn3)CC2)c(C)o1,9.41%
7,c1cc2c(cc1OC[C@@H]1CCCN3CCCC[C@H]13)OCCO2,3.85%
8,CC(C)C(=O)N1CCC2(CC1)NC(=O)c1ccccc12,-2.39%
9,Fc1ccc(CN2CCO[C@H]3[C@H](Oc4ccccn4)CC[C@@H]32)cc1,7.26%
10,Cc1nc(CCN2CCC(Oc3ccccc3F)CC2)c(C)s1,8.34%
11,CN(C)CCCN(C)c1nccc(N2CCN[C@H]3CS(=O)(=O)C[C@H]32)n1,23.2%
12,Oc1c(F)cc(CNc2cccc(-c3nnc[nH]3)c2)cc1F,-9.32%
13,CNC(=O)CS(=O)(=O)C1CCN(S(=O)(=O)c2cccnc2)CC1,-3.91%
14,Cc1nc(O)c2nnn(C[C@H]3CCCN3C(=O)CCC3CCCC3)c2n1,5.57%
15,c1cnn(CC2CCCN2Cc2nc(C3CC3)no2)c1 (stereo not drawn),-8.97%
16,FC1(F)CCN(Cc2ccccn2)CC12CCN(c1cnccn1)C2 (stereo not drawn),-5.08%
17,c1ccc(OCc2noc(CN3CCC(N4CCSCC4)CC3)n2)cc1,-5.9%
18,O=C(CSCC1CC1)N1CCCC(c2nccn2Cc2ccccn2)C1 (stereo not drawn),0.457%
19,Cc1nc(C2CCCN2C(=O)CNS(C)(=O)=O)no1 (stereo not drawn),-13.3%
20,CN1CCC(n2nc(Cc3cccs3)nc2-c2ccncc2)CC1,2.89%
21,OC1CN(Cc2cccc(N3CCOCC3)c2)Cc2ccccc21 (stereo not drawn),-0.922%
